Results reported in patent publication US20100137345A1, “PROPHYLACTIC AND THERAPEUTIC USE OF SIRTUIN INHIBITORS IN TNF-ALPHA MEDIATED PATHOLOGIES” (Universite Libre de Bruxelles, priority 2007, published 2010).
“Also recorded” adds a separate entry of the source.

Experiments:
[1] = tested on: murine macrophage-like cell line RAW264.7; assay: TNF-alpha secretion by LPS-stimulated RAW264.7 cells (ELISA); format: cell-based; settings: stimulated 2 h with 100 ng/ml LPS, FIG. 1B
Description: (§1) Murine dendritic cells (FIG. 1A) or the murine macrophage-like cell line RAW264.7 cells (FIG. 1B) were cultured in the presence of sirtuin inhibitors as indicated or an equivalent amount of solvent (DMSO) and stimulated overnight with graded doses of CpG (FIG. 1A) or for 2 h with 100 ng/ml of lipopolysaccharide (LPS) from gram-negative bacteria. Cell supernatants were tested for tumor necrosis factor (TNF-alpha) content by ELISA.

murine dendritic cells [2] = assay: RANTES secretion by CpG-stimulated murine dendritic cells (ELISA); format: cell-based; settings: inferred from RANTES secretion, FIG. 2
Description: Murine dendritic cells were cultured in the presence of sirtuin inhibitors as indicated and stimulated overnight with graded doses of CpG. Cell supernatants were tested for RANTES content by ELISA.

RAW264.7 = assay: TNF-alpha mRNA accumulation in LPS-stimulated RAW264.7 (quantitative RT-PCR); format: cell-based, murine; settings: RAW264.7, stimulated 2 h by LPS, FIG. 3
Description: RAW264.7 were incubated in the presence of sirtuin inhibitors or equivalent doses of solvent (DMSO) as indicated and stimulated for 2 h by LPS. Expression of mRNA encoding for TNF-α was monitored using quantititative RT-PCR using standard procedures and the following forward and reverse primers (fwd: […]; rev: gctacgacgtgggctacag). […] Collectively, these observations indicate that sirtuin inhibitors may affect TNF-alpha secretion by interfering with at a post-transcriptional step.

murine dendritic cells [3] = assay: TNF-alpha secretion by CpG-stimulated murine dendritic cells (ELISA); format: cell-based; settings: stimulated overnight with graded doses of CpG, FIG. 1A
Description: as §1

[4] = Yang et al. 2007; cited from earlier work
SIRT1 = SIRT1 (Homo sapiens, UniProt Q96EB6); settings: Howitz et al. 2003; cited from earlier work
Chain of SIRT1 (Q96EB6 whole entry): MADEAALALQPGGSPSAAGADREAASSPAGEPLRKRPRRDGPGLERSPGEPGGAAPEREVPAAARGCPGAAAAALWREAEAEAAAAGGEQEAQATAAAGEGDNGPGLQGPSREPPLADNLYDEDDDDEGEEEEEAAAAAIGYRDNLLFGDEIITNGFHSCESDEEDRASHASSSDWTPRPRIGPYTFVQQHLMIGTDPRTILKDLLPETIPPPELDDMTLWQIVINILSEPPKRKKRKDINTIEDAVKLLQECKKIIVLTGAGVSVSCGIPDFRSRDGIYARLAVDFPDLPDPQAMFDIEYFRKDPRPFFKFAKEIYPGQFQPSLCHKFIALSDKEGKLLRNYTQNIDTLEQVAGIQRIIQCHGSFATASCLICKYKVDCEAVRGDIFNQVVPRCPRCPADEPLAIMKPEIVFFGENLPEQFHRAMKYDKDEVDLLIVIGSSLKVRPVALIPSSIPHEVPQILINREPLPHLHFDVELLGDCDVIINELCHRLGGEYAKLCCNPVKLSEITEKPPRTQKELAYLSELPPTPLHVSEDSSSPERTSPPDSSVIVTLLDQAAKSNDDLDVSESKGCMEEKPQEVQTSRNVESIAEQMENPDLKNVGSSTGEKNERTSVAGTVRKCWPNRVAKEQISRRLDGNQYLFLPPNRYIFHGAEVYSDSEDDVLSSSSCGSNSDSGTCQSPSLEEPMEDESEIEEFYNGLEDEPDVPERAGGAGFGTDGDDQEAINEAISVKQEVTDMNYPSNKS

SMILES | TNF-alpha secretion / cytokine production (supernatant TNF-alpha content by ELISA) [1] | general inhibition of protein synthesis or induction of cell death (murine dendritic cells [2]) | intracellular accumulation of TNF-alpha mRNA (RAW264.7) | TNF-alpha secretion (supernatant TNF-alpha content by ELISA) (murine dendritic cells [3]) | release of inflammatory cytokines induced by cigarette smoke extracts [4] | inhibition of SIRT1 enzymatic activity (SIRT1)
Oc1ccc2ccccc2c1Cc1c(O)nc(S)nc1-c1ccccc1 [cambinol, 5-((2-hydroxy-1-naphthyl)methyl)-2-mercapto-6-phenyl-4-pyrimidinol] | inhibit TNF-α protein synthesis; also recorded: downregulation of TNF-alpha secretion; also recorded: may downregulate TNF-alpha cytokine production | do not generally inhibit protein synthesis nor induce cell death | do not significantly affect TNF-alpha mRNA accumulation; also recorded: without significantly affecting the intracellular accumulation of TNF-alpha mRNA | downregulation of TNF-alpha secretion | – | –
CC(NC(=O)c1ccccc1/N=C/c1c(O)ccc2ccccc12)c1ccccc1 (stereo not shown) [sirtinol, 2-[(2-Hydroxynaphthalen-1-ylmethylene)amino]-N-(1-phenethyl)benzamide] | inhibit TNF-α protein synthesis; also recorded: downregulation of TNF-alpha secretion; also recorded: may downregulate TNF-alpha cytokine production | do not generally inhibit protein synthesis nor induce cell death | do not significantly affect TNF-alpha mRNA accumulation; also recorded: without significantly affecting the intracellular accumulation of TNF-alpha mRNA | downregulation of TNF-alpha secretion | could increase the release of inflammatory cytokines | –
Cc1ccc(C(=O)Nc2ccc(S(=O)(=O)O)c3cc(S(=O)(=O)O)cc(S(=O)(=O)O)c23)cc1NC(=O)c1cccc(NC(=O)Nc2cccc(C(=O)Nc3cc(C(=O)Nc4ccc(S(=O)(=O)O)c5cc(S(=O)(=O)O)cc(S(=O)(=O)O)c45)ccc3C)c2)c1 [suramin] | – | – | – | – | – | found to inhibit SIRT1 enzymatic activity
